Experiments:
[1] = tested on: soluble epoxide hydrolase (sEH); experiment: Fluorescent assay for mouse and human soluble epoxide hydrolase (CMNPC substrate); type: biochemical
From the text: Fluorescent Assay for Mouse and Human Soluble Epoxide Hydrolase Recombinant mouse sEH (MsEH) and human sEH (HsEH) were produced in a baculovirus expression system as previously reported. Grant et al., J. Biol. Chem., 268:17628-17633 (1993); Beetham et al., Arch. Biochem. Biophys., 305:197-201 (1993). The expressed proteins were purified from cell lysate by affinity chromatography. Wixtrom et al., Anal. Biochem., 169:71-80 (1988). Protein concentration was quantified using the Pierce BCA assay using bovine serum albumin as the calibrating standard. The preparations were at least 97% pure as judged by SDS-PAGE and scanning densitometry. They contained no detectable esterase or glutathione transferase activity which can interfere with the assay. The assay was also evaluated with similar results in crude cell lysates or homogenate of tissues. The IC50s for each inhibitor were according to the following procedure: […] Jones P. D. et. al.; Analytical Biochemistry 2005; 343: pp. 66-75) Bis/Tris HCl 25 mM pH 7.0 containing 0.1 mg/mL of BSA (buffer […] at 0.25 mM in DMSO. Mother solution of enzyme in buffer A (Mouse sEH at 6 μg/mL and Human sEH at 5 μg/mL). Inhibitor dissolved in DMSO at the appropriate concentration. In a black 96 well plate, fill all the wells with 150 μL of buffer A. Add 2 μL of DMSO in well A2 and A3, and then add 2 μL of inhibitor solution in A1 and A4 through A12. Add 150 μL of buffer A in row A, then mix several time and transfer 150 μL to row B. Repeat this operation up to row H. The 150 μL removed from row H is discarded. Add 20 μL of buffer A in column 1 and 2, then add 20 μL of enzyme solution to column 3 to 12. Incubate the plate for 5 minutes in the plate reader at 30° C. During incubation prepare the working solution of substrate by mixing 3.68 mL of buffer A (4×0.920 mL) with 266 μL (2×133 μL) of substrate solution). At t=0, add 30 μL of working substrate solution with multi-channel pipette labeled “Briggs 303” and start the reading ([S]final: 5 μM). […] The velocities are used to analyze and calculate the IC50s.

Compound	% Inhibition ([1]; compound concentration 200 nM) [%]	melting point [°C]	% Inhibition ([1]; compound concentration 2000 nM) [%]
O=C(Nc1ccc(OC(F)(F)F)cc1)NC1CCN(C(=O)c2cncc(C(=O)O)c2)CC1 [Compound 1, 5-(4-(3-(4-(trifluoromethoxy)phenyl)ureido)piperidine-1-carbonyl)nicotinic acid]	94	211 to 213	
O=C(Nc1ccc(OC(F)(F)F)cc1)NC1CCN(C(=O)c2ccc(C(F)(F)F)nc2)CC1 [Compound 2, 1-(4-(trifluoromethoxy)phenyl)-3-(1-(6-(trifluoromethyl)nicotinoyl)piperidin-4-yl)urea]	97	206 to 208	
Cc1ncccc1C(=O)N1CCC(NC(=O)Nc2ccc(OC(F)(F)F)cc2)CC1 [Compound 3, 1-(1-(2-methylnicotinoyl)piperidin-4-yl)-3-(4-(trifluoromethoxy)phenyl)urea]	95	107 to 109	
Cc1ccc(C(=O)N2CCC(NC(=O)Nc3ccc(OC(F)(F)F)cc3)CC2)cn1 [Compound 4, 1-(1-(6-methylnicotinoyl)piperidin-4-yl)-3-(4-(trifluoromethoxy)phenyl)urea]	97	206 to 208	
COc1ncccc1C(=O)N1CCC(NC(=O)Nc2ccc(OC(F)(F)F)cc2)CC1 [Compound 5, 1-(1-(2-methoxynicotinoyl)piperidin-4-yl)-3-(4-(trifluoromethoxy)phenyl)urea]	99	92 to 94	
O=C(Nc1ccc(OC(F)(F)F)cc1)NC1CCN(S(=O)(=O)c2cccnc2)CC1 [Compound 6, 1-(1-(pyridin-3-ylsulfonyl)piperidin-4-yl)-3-(4-(trifluoromethoxy)phenyl)urea]	96	217 to 219	
O=C(Nc1ccc(OC(F)(F)F)cc1)NC1CCN(C(=O)c2cncc(F)c2)CC1 [Compound 7, 1-(1-(5-fluoronicotinoyl)piperidin-4-yl)-3-(4-(trifluoromethoxy)phenyl)urea]		156 to 157	98
O=C(Nc1ccc(OC(F)(F)F)cc1)NC1CCN(C(=O)c2ccncc2)CC1 [Compound 8, 1-(1-isonicotinoylpiperidin-4-yl)-3-(4-(trifluoromethoxy)phenyl)urea]			99
COc1ccc(C(=O)N2CCC(NC(=O)Nc3ccc(OC(F)(F)F)cc3)CC2)cn1 [Compound 9, 1-(1-(6-methoxynicotinoyl)piperidin-4-yl)-3-(4-(trifluoromethoxy)phenyl)urea]		200 to 202	99
O=C(Nc1cccc(OC(F)(F)F)c1)NC1CCN(C(=O)c2cccnc2)CC1 [Compound 10, 1-(1-nicotinoylpiperidin-4-yl)-3-(3-(trifluoromethoxy)phenyl)urea]			99
O=C(Nc1ccc(OC(F)(F)F)cc1)NC1CCN(C(=O)Cc2ccccn2)CC1 [Compound 11, 1-(1-(2-(pyridin-2-yl)acetyl)piperidin-4-yl)-3-(4-(trifluoromethoxy)phenyl)urea]			100
O=C(Nc1ccc(OC(F)(F)F)cc1)NC1CCN(C(=O)c2cccnc2)CC1 [Compound 12, 1-(1-nicotinoylpiperidin-4-yl)-3-(4-(trifluoromethoxy)phenyl)urea]			100
O=C(Nc1ccc(OC(F)(F)F)cc1)NC1CCN(C(=O)c2cnccc2C(F)(F)F)CC1 [Compound 13, 1-(4-(trifluoromethoxy)phenyl)-3-(1-(4-(trifluoromethyl)nicotinoyl)piperidin-4-yl)urea]		89 to 91	99
O=C(Nc1ccc(OC(F)(F)F)cc1)NC1CCN(C(=O)c2ccc(-c3ccccc3)nc2)CC1 [Compound 14, 1-(1-(6-phenylnicotinoyl)piperidin-4-yl)-3-(4-(trifluoromethoxy)phenyl)urea]		230 to 232	100
O=C(Nc1ccc(OC(F)(F)F)cc1)NC1CCN(C(=O)c2ccc(N3CCOCC3)nc2)CC1 [Compound 15, 1-(1-(6-morpholinonicotinoyl)pipendin-4-yl)-3-(4-(trifluoromethoxy)phenyl)urea]		265 to 268	100
O=C(Nc1ccc(OC(F)(F)F)cc1)NC1CCN(C(=O)c2ccc(Oc3ccccc3)nc2)CC1 [Compound 16, 1-(1-(6-phenoxynicotinoyl)piperidin-4-yl)-3-(4-(trifluoromethoxy)phenyl)urea]		182 to 185	100
CN1CCOc2cc(C(=O)N3CCC(NC(=O)Nc4ccc(OC(F)(F)F)cc4)CC3)cnc21 [Compound 17, 1-(1-(4-methyl-3,4-dihydro-2H-pyrido[3,2-b][1,4]oxazine-7-carbonyl)piperidin-4-yl)-3-(4-(trifluoromethoxy)phenyl)urea]		212 to 214	100
O=C(Nc1ccc(OC(F)(F)F)cc1)NC1CCN(C(=O)c2ccc(Cl)cn2)CC1 [Compound 18, 1-(1-(5-chloropicolinoyl)piperidin-4-yl)-3-(4-(trifluoromethoxy)phenyl)urea]		213 to 215	97

From patent US20090270382A1, “Soluble epoxide hydrolase inhibitors” (Arete Therapeutics, Inc., priority 2008, published 2009)
